Structures can show the parent of a compound that is named as a salt.
Test system: T1, L. nuda laccase
T1 construct: gene EC 1.10.3.2; native, purified from culture broth (fraction SU3); 56 kDa monomer; white laccase
Test: spectrophotometric oxidation, Lineweaver-Burk plot
Format: biochemical, Collybia nuda
Conditions: HAc-NaAc buffer pH 4.6, 25 °C

Km: 190 µM
Compound: CCn1c(=NN=c2sc3cc(S(=O)(=O)O)ccc3n2CC)sc2cc(S(=O)(=O)O)ccc21 [ABTS, 2,7-azinobis(3-ethylbenzothia-zolone-6-sulfonic acid) diammonium salt]

— paper PMC6274495, “Purification and Characterization of a White Laccase with Pronounced Dye Decolorizing Ability and HIV-1 Reverse Transcriptase Inhibitory Activity from Lepista nuda” (Molecules, 2016)
